Reference: patent US8507545B2, “Cytotoxic T cell activator comprising EP4 agonist” (National University Corporation, Hamamatsu University …, priority 2007, dated 2013)

Legend:
[1] = test system: HSVgpB-specific CTLs; experiment: Activation of cytotoxic T cells in cervical lymph nodes after tape stripping (HSVgpB pentamer flow cytometry); assay type: in vivo, C57BL/6(B6) mice; conditions: Example 1(3)
Procedure: (§1) The corneal layers of the auricles of C57BL/6(B6) mice were destroyed by repeating a stripping procedure using an adhesive tape in 10 cycles, and an antigen peptide or EP4 agonist was applied as a test substance. The antigen peptide used was a melanoma-specific antigen peptide (Accord K.K. Peptide Business Department; hereinafter abbreviated TRP-2) in solution in 70% ethanol; 10 μg was applied to one side of each auricle. The EP4 agonist used was 11α,15α,-dihydroxy-9-oxo-16-(3-methoxymethylphenyl)-17,18,19,20-tetranol-3,7-dithiaprost-13E-enoic acid (hereinafter abbreviated Compound A-(1)) in solution in a mixed solvent of acetone:olive oil=10:1; 20 μL of 100 μM solution was applied to one side of each auricle. One week after application of the test substance, the cervical lymph nodes were removed. The frequency of TRP-2-specific CTLs was determined relative to the total number of mononucleocytes in the cervical lymph nodes as 100 by a flowcytometric analysis (FACScaliber; Becton, Dickinson and Company.) with a tetramer (Medical & Biological Laboratories Co., Ltd.). Four experimental groups were established: (1) a group undergoing tape stripping (hereinafter abbreviated TS) alone, (2) a group undergoing TS followed by application of TRP-2, (3) a group undergoing TS followed by application of Compound A-(1), and (4) a group undergoing TS followed by application of TRP-2 and Compound A-(1).
The same procedures as Example 1(1) were followed except that the antigen peptide used was the herpes simplex virus-specific antigen HSV glycoprotein B (hereinafter abbreviated HSVgpB), and that a flowcytometric analysis with a pentamer (ProImmune Company) was performed, and the action of each compound to activate cytotoxic T cells was evaluated. Five experimental groups were established: (1) a group undergoing TS alone, (2) a group undergoing TS followed by application of HSVgpB, (3) a group undergoing TS followed by application of HSVgpB and Compound A-(1), (4) a group undergoing TS followed by application of HSVgpB and Compound L-(1), and (5) a group undergoing TS followed by application of HSVgpB and Compound M-(1).
Note that the herpes simplex virus-specific antigen peptide HSVgpB was synthesized on the basis of the partial sequence shown by SEQ ID NO. 2 (Virology, Vol. 195, pp. 62-70, (1993)) (ProImmune Company).

[2] = test system: TRP-2-specific CTLs; experiment: Activation of cytotoxic T cells in cervical lymph nodes after tape stripping (TRP-2 tetramer flow cytometry); assay type: in vivo, C57BL/6(B6) mice; conditions: relative to total mononucleocytes as 100
Procedure: as §1
Note that the melanoma-specific antigen peptide TRP-2 was synthesized on the basis of a partial sequence described in the aforementioned Non-patent Document 1 (SEQ ID NO. 1) (Accord K.K. Peptide Business Department).
The same procedures as Example 1(1) were followed except that the EP4 agonists used were 4-[(2-{(2R)-2-[(1E,3S)-4-(4-fluorophenyl)-3-hydroxybut-1-enyl]-5-oxopyrrolidin-1-yl}ethyl)sulfanyl]butanoic acid (hereinafter abbreviated Compound L-(1)) and 4-{[2-((1R,2R,3R)-3-hydroxy-2-{(1E,3S)-3-hydroxy-4-[3-(methoxymethyl)phenyl]but-1-enyl}-5-oxocyclopentyl)ethyl]sulfanyl}butanoic acid (hereinafter abbreviated Compound M-(1)); the action of each compound to activate cytotoxic T cells was evaluated. Four experimental groups were established: (1) a group undergoing TS alone, (2) a group undergoing TS followed by application of TRP-2, (3) a group undergoing TS followed by application of TRP-2 and Compound L-(1), and (4) a group undergoing TS followed by application of TRP-2 and Compound M-(1).

[3] = test system: B16 melanoma cells; experiment: Melanoma growth suppressing action; assay type: in vivo, B6 mouse; conditions: TS followed by application of TRP-2, experimental group (2)
Procedure: The corneal layer was removed from the right auricle of each B6 mouse by TS in the same manner as Example 1, and test substances (TRP-2 and Compound A-(1)) were applied there; 2 weeks later, the left auricle was treated in the same manner. The test substances applied to both ears were used in the same combination; TRP-2 was applied at 10 μg for one side of each auricle, and Compound A-(1) was applied at 20 μl, of 100 μM solution for one side of each auricle. Four days after the above-described treatment, each mouse received 2×10^5 B16 melanoma cells (RIKEN's Cell Bank) by subcutaneous transplantation, and examined for tumor growth. Experimental groups were established as in Example 1(1) (5 animals in each group).
Tumor diameter (mm), as an index of tumor growth, was measured in each group at various days after inoculation of B16 melanoma cells; the results are shown in FIG. 1.

[4] = test system: TRP-2-specific CTLs; experiment: Activation of cytotoxic T cells in isolated Langerhans cells co-cultured with lymphocytes; assay type: cell-based, C57BL/6(B6) mouse
Procedure: A given area of an auricle epidermal sheet was removed from the corneal layer of one auricle of each C57BL/6(B6) mouse, and trypsinized to yield an epidermal cell suspension. The epidermal cell suspension obtained was subjected to panning using an antibody specific for I-A^b antigen to isolate epidermal Langerhans cells. After each test substance (TRP-2 (concentration; 10 μg/mL) and Compound A-(1) (1 μM)) was added to the Langerhans cells isolated (cell density; 10^5 cells per mL), the cells were cultured with a medium (cRPMI1640 medium; Sigma-Aldrich Japan). Half a day later, the cells were co-cultured with splenocytic lymphocytes isolated from […] for 7 days. Subsequently, by a flowcytometric analysis (FACScaliber; Becton, Dickinson and Company.) using a tetramer (Medical & Biological Laboratories Co., Ltd.), the frequency of TRP-2-specific CTLs was determined relative to the total number of mononucleocytes in the medium as 100. Three experimental groups were established: (1) a group with no treatment, (2) a group with the addition of TRP-2, and (3) a group with the addition of both TRP-2 and Compound A-(1).

[5] = TS followed by application of HSVgpB and the EP4 agonist
[6] = Example 1(2), TS followed by application of TRP-2 and the EP4 agonist, cervical lymph nodes

Compound: O=C(O)CCCSCCN1C(=O)CC[C@@H]1/C=C/[C@@H](O)Cc1ccc(F)cc1 [Compound L-(1), 4-[(2-{(2R)-2-[(1E,3S)-4-(4-fluorophenyl)-3-hydroxybut-1-enyl]-5-oxopyrrolidin-1-yl}ethyl)sulfanyl]butanoic acid]
- Ratio of HSVgpB-specific CTLs [1, 5]: 0.29
- Ratio of TRP-2-specific CTLs [2, 6]: 1.92

Compound: COCc1cccc(C[C@H](O)/C=C/[C@H]2[C@H](O)CC(=O)[C@@H]2CCSCCCC(=O)O)c1 [Compound M-(1), 4-{[2-((1R,2R,3R)-3-hydroxy-2-{(1E,3S)-3-hydroxy-4-[3-(methoxymethyl)phenyl]but-1-enyl}-5-oxocyclopentyl)ethyl]sulfanyl}butanoic acid]
- Ratio of HSVgpB-specific CTLs [1, 5]: 0.30
- Ratio of TRP-2-specific CTLs [2, 6]: 1.66

Compound: HSVgpB: herpes simplex virus-specific antigen peptide; Herpes Simplex Virus glycoprotein B 498-505 (SEQ ID NO. 2) (SSIEFARL; Herpes Simplex Virus glycoprotein B 498-505) [reference compound]
- Ratio of HSVgpB-specific CTLs ([1]; TS followed by application of HSVgpB alone): 0.25

Compound: TRP-2: melanoma-specific antigen peptide; tyrosinase-related protein 2 181-188, partial sequence VYDFFVWL (SEQ ID NO. 1) (Tyrosinase-related protein 2 residues 181-188) [reference compound]
- tumor growth suppressing action compared with an EP4 agonist alone [3]: equivalent
- Ratio of TRP-2-specific CTLs ([2]; Example 1(1), TS followed by application of the test substance alone, cervical lymph nodes one week after application): 0.35
- Ratio of TRP-2-specific CTLs ([2]; Example 1(2), TS followed by application of TRP-2 alone, cervical lymph nodes): 1.28
- Ratio of TRP-2-specific CTLs ([4]; addition of TRP-2 (10 μg/mL) alone, 7 days co-culture, relative to total mononucleocytes in the medium as 100): 3.2
- ratio of TRP-2-specific CTLs in B6 splenocytic lymphocytes ([4]; addition of TRP-2, experimental group (2)): increased
